Patent US20220241249A1, “PHARMACEUTICAL COMPOSITION AND KIT CONTAINING NOVEL PENAM DERIVATIVE OR SALT THEREOF AND ONE OR MORE COMPOUNDS SELECTED FROM beta-LACTAMASE INHIBITORY COMPOUND AND ANTIBACTERIAL COMPOUND OR SALTS THEREOF” (priority 2019, published 2022)
Values after ≈ are worked out from the molar mass of the structure shown. Where two headings read alike, the source gives them in different places.

Columns and labels:
Experiment in all cases: Antibacterial activity evaluation test, MIC by broth microdilution (CLSI)
Type in all cases: cell-based
[1] = test system: AmpC-derepressed Pseudomonas aeruginosa mutant strain (S-3028); settings: for MIC: Pseudomonas aeruginosa
Experimental: (§1) The minimum inhibitory concentration (MIC) was measured according to the Clinical and Laboratory Standards Institute (CLSI) standard method by using the following broth microdilution method.
(§2) As bacteria, a Pseudomonas aeruginosa strain ATCC27853, an AmpC-derepressed Pseudomonas aeruginosa mutant strain (S-3028), an IMP-1-containing Pseudomonas aeruginosa strain (S-2838), a VIM-2-containing Pseudomonas aeruginosa strain (S-3779), a GES-19 and GES-20-containing Pseudomonas aeruginosa strain (S-3759), a CTX-M-15-containing Escherichia coli strain (TK-1747), a KPC-2-containing Klebsiella pneumoniae strain (Y-995), an OXA-48-containing Klebsiella pneumoniae strain (Y-1062), and an NDM-1-containing Klebsiella pneumoniae strain (Y-1007) were used. The test bacterial cells that had been cultured overnight on a Mueller Hinton agar medium were scraped off, suspended at a density equivalent to 0.5 McFarland standard, and diluted 10-fold, thereby obtaining an inoculum. A cation-adjusted Mueller Hinton medium containing a test compound was inoculated with 0.005 mL of the inoculum, and the cells were cultured at 35° C. for 16 to 20 hours. The minimum drug concentration at which the growth of bacteria was not visually observed was defined as MIC (μg/mL).
(§3) An antibacterial activity evaluation test was performed in the same manner as in Test Example 1.

[2] = test system: CTX-M-15-containing Escherichia coli strain (TK-1747); settings: for MIC: Escherichia coli
Experimental: as §1, §2, §3

[3] = test system: GES-19 and GES-20-containing Pseudomonas aeruginosa strain (S-3759); settings: for MIC: Pseudomonas aeruginosa
Experimental: as §1, §2, §3

[4] = test system: IMP-1-containing Pseudomonas aeruginosa strain (S-2838); settings: for MIC: Pseudomonas aeruginosa
Experimental: as §1, §2, §3

[5] = test system: KPC-2-containing Klebsiella pneumoniae strain (Y-995); settings: for MIC: Klebsiella pneumoniae
Experimental: as §1, §2, §3

[6] = test system: NDM-1-containing Klebsiella pneumoniae strain (Y-1007); settings: for MIC: Klebsiella pneumoniae
Experimental: as §1, §2, §3

[7] = test system: OXA-48-containing Klebsiella pneumoniae strain (Y-1062); settings: for MIC: Klebsiella pneumoniae
Experimental: as §1, §2, §3

[8] = test system: Pseudomonas aeruginosa strain ATCC27853; settings: ATCC27853
Experimental: as §1, §2, §3

[9] = test system: VIM-2-containing Pseudomonas aeruginosa strain (S-3779); settings: for MIC: Pseudomonas aeruginosa
Experimental: as §1, §2, §3

Nc1nc(/C(=N/OC2(C(=O)O)CC2)C(=O)N[C@@H]2C(=O)N3C[C@@](C(=O)O)(N4CCN(NC(=O)C(=O)c5ccc(O)c(O)c5Cl)C4=O)S[C@H]23)cs1 [Example 21, (3R,5R,6R)-6-((Z)-2-(2-aminothiazol-4-yl)-2-((1-carboxycyclopropoxy)imino)acetamido)-3-(3-(2-(2-chloro-3,4-dihydroxyphenyl)-2-oxoacetamido)-2-oxoimidazolidin-1-yl)-7-oxo-4-thia-1-azabicyclo[3.2.0]heptane-3-carboxylic acid]
MIC [1]: 4 µg/mL (≈ 5.41 µM)
MIC [2]: 0.12 µg/mL (≈ 0.162 µM)
MIC [3]: 1 µg/mL (≈ 1.35 µM)
MIC [4]: 2 µg/mL (≈ 2.71 µM)
MIC [5]: < 0.06 µg/mL
MIC [6]: < 0.06 µg/mL
MIC [7]: 2 µg/mL (≈ 2.71 µM)
MIC ([8]; Pseudomonas aeruginosa): 0.25 µg/mL (≈ 0.338 µM)
MIC [9]: 0.5 µg/mL (≈ 0.676 µM)

CC(C)(O/N=C(\C(=O)N[C@@H]1C(=O)N2C[C@@](C(=O)O)(N3CCN(NC(=O)C(=O)NNC(=O)C(=O)c4ccc(O)c(O)c4Cl)C3=O)S[C@H]12)c1csc(N)n1)C(=O)O [Example 88, (3R,5R,6R)-6-((Z)-2-(2-aminothiazol-4-yl)-2-(((2-carboxypropan-2-yl)oxy)imino)acetamido)-3-(3-(2-(2-(2-(2-chloro-3,4-dihydroxyphenyl)-2-oxoacetyl)hydradienyl)-2-oxoacetamido)-2-oxoimidazolidin-1-yl)-7-oxo-4-thia-1-azabicyclo[3.2.0]heptane-3-carboxylic acid]
MIC [1]: 0.5 µg/mL (≈ 0.604 µM)
MIC [2]: 2 µg/mL (≈ 2.42 µM)
MIC [3]: 0.5 µg/mL (≈ 0.604 µM)
MIC [4]: 0.5 µg/mL (≈ 0.604 µM)
MIC [5]: 0.25 µg/mL (≈ 0.302 µM)
MIC [6]: < 0.06 µg/mL
MIC [7]: 0.5 µg/mL (≈ 0.604 µM)
MIC ([8]; Pseudomonas aeruginosa): 0.5 µg/mL (≈ 0.604 µM)
MIC [9]: 0.5 µg/mL (≈ 0.604 µM)

Nc1nc(/C(=N/OC2(C(=O)O)CCC2)C(=O)N[C@@H]2C(=O)N3C[C@@](C(=O)O)(N4CCN(NC(=O)C(=O)c5ccc(O)c(O)c5Cl)C4=O)S[C@H]23)c(Cl)s1 [Example 78, (3R,5R,6R)-6-((Z)-2-(2-amino-5-chlorothiazol-4-yl)-2-((1-carboxycyclobutoxy)imino)acetamido)-3-(3-(2-(2-chloro-3,4-dihydroxyphenyl)-2-oxoacetamido)-2-oxoimidazolidin-1-yl)-7-oxo-4-thia-1-azabicyclo[3.2.0]heptane-3-carboxylic acid]
MIC [1]: < 0.06 µg/mL
MIC [2]: 0.25 µg/mL (≈ 0.317 µM)
MIC [3]: 1 µg/mL (≈ 1.27 µM)
MIC [4]: 1 µg/mL (≈ 1.27 µM)
MIC [5]: 0.25 µg/mL (≈ 0.317 µM)
MIC [6]: < 0.06 µg/mL
MIC [7]: 0.25 µg/mL (≈ 0.317 µM)
MIC ([8]; Pseudomonas aeruginosa): 0.5 µg/mL (≈ 0.635 µM)
MIC [9]: 0.25 µg/mL (≈ 0.317 µM)

CC(C)(O/N=C(\C(=O)N[C@@H]1C(=O)N2C[C@@](C(=O)O)(N3CCN(NC(=O)CCNC(=O)c4ccc(O)c(O)c4Cl)C3=O)S[C@H]12)c1csc(N)n1)C(=O)O [Example 28, (3R,5R,6R)-6-((Z)-2-(2-aminothiazol-4-yl)-2-(((2-carboxypropan-2-yl)oxy)imino)acetamido)-3-(3-(3-(2-chloro-3,4-dihydroxybenzamido)propanamido)-2-oxoimidazolidin-1-yl)-7-oxo-4-thia-1-azabicyclo[3.2.0]heptane-3-carboxylic acid]
MIC [1]: 0.25 µg/mL (≈ 0.319 µM)
MIC [2]: 2 µg/mL (≈ 2.55 µM)
MIC [3]: 2 µg/mL (≈ 2.55 µM)
MIC [4]: 0.25 µg/mL (≈ 0.319 µM)
MIC [5]: 1 µg/mL (≈ 1.28 µM)
MIC [6]: < 0.06 µg/mL
MIC [7]: 0.25 µg/mL (≈ 0.319 µM)
MIC ([8]; Pseudomonas aeruginosa): 0.5 µg/mL (≈ 0.638 µM)
MIC [9]: 0.5 µg/mL (≈ 0.638 µM)

CC(C)(O/N=C(\C(=O)N[C@@H]1C(=O)N2C[C@@](C(=O)O)(N3CC(=O)N(NC(=O)C(=O)c4ccc(O)c(O)c4Cl)CC3=O)S[C@H]12)c1csc(N)n1)C(=O)O [Example 82, (3R,5R,6R)-6-((Z)-2-(2-aminothiazol-4-yl)-2-(((2-carboxypropan-2-yl)oxy)imino)acetamido)-3-(4-(2-(2-chloro-3,4-dihydroxyphenyl)-2-oxoacetamido)-2,5-dioxopiperazin-1-yl)-7-oxo-4-thia-1-azabicyclo[3.2.0]heptane-3-carboxylic acid]
MIC [1]: 4 µg/mL (≈ 5.2 µM)
MIC [2]: 1 µg/mL (≈ 1.3 µM)
MIC [3]: 2 µg/mL (≈ 2.6 µM)
MIC [4]: 4 µg/mL (≈ 5.2 µM)
MIC [5]: 4 µg/mL (≈ 5.2 µM)
MIC [6]: 0.5 µg/mL (≈ 0.65 µM)
MIC [7]: 2 µg/mL (≈ 2.6 µM)
MIC ([8]; Pseudomonas aeruginosa): 0.5 µg/mL (≈ 0.65 µM)
MIC [9]: 1 µg/mL (≈ 1.3 µM)

CC(C)(O/N=C(\C(=O)N[C@@H]1C(=O)N2C[C@@](C(=O)O)(N3CCN(NC(=O)C(=O)NCCNC(=O)c4ccc(O)c(O)c4Cl)C3=O)S[C@H]12)c1csc(N)n1)C(=O)O [Example 68, (3R,5R,6R)-6-((Z)-2-(2-aminothiazol-4-yl)-2-(((2-carboxypropan-2-yl)oxy)imino)acetamido)-3-(3-(2-((2-(2-chloro-3,4-dihydroxybenzamido)ethyl)amino)-2-oxoacetamido)-2-oxoimidazolidin-1-yl)-7-oxo-4-thia-1-azabicyclo[3.2.0]heptane-3-carboxylic acid]
MIC [1]: 0.25 µg/mL (≈ 0.302 µM)
MIC [2]: 1 µg/mL (≈ 1.21 µM)
MIC [3]: 4 µg/mL (≈ 4.84 µM)
MIC [4]: 1 µg/mL (≈ 1.21 µM)
MIC [5]: 0.5 µg/mL (≈ 0.604 µM)
MIC [6]: < 0.06 µg/mL
MIC [7]: 1 µg/mL (≈ 1.21 µM)
MIC ([8]; Pseudomonas aeruginosa ATCC 27853, 35° C., 16 to 20 hours, read-out: MIC): 1 µg/mL (≈ 1.21 µM)
MIC [9]: 2 µg/mL (≈ 2.42 µM)

CC(C)(O/N=C(\C(=O)NC1C(=O)N2C[C@@](C(=O)O)(N3CCN(NC(=O)C(=O)c4cc(O)c(O)cc4F)C3=O)S[C@H]12)c1csc(N)n1)C(=O)O (stereo partly drawn) [Example 147, (3R,5R,6R)-6-((Z)-2-(2-aminothiazol-4-yl)-2-(((2-carboxypropan-2-yl)oxy)imino)aceta-mido)-3-(3-(2-(2-fluoro-4,5-dihydroxy-phenyl)-2-oxoaceta-mido)-2-oxoimidazol-idin-1-yl)-7-oxo-4-thia-1-azabicyclo[3.2.0]-heptane-3-carboxylic acid]
Antibacterial activity (MIC) Pseudomonas aeruginosa S-3028 [1]: 0.5 µg/mL
Antibacterial activity (MIC) Escherichia coli TK-1747 [2]: 1 µg/mL
Antibacterial activity (MIC) Pseudomonas aeruginosa S-3759 [3]: 1 µg/mL
Antibacterial activity (MIC) Pseudomonas aeruginosa S-2838 [4]: 4 µg/mL
Antibacterial activity (MIC) Klebsiella pneumoniae Y-995 [5]: 0.25 µg/mL
Antibacterial activity (MIC) Klebsiella pneumoniae Y-1007 [6]: < 0.06 µg/mL
Antibacterial activity (MIC) Klebsiella pneumoniae Y-1062 [7]: 4 µg/mL
Antibacterial activity (MIC) Pseudomonas aeruginosa ATCC 27853 ([8]; Pseudomonas aeruginosa): 1 µg/mL
Antibacterial activity (MIC) Pseudomonas aeruginosa S-3779 [9]: 1 µg/mL

CC(C)(O/N=C(\C(=O)N[C@@H]1C(=O)N2C[C@@](C(=O)O)(n3nnc(CNC(=O)c4ccc(O)c(O)c4Cl)n3)S[C@H]12)c1csc(N)n1)C(=O)O [Example 141, (3R,5R,6R)-6-((Z)-2-(2-aminothiazol-4-yl)-2-(((2-carboxypropan-2-yl)oxy)imino)acetamido)-3-(5-((2-chloro-3,4-dihydroxybenzamido)methyl)-2H-tetrazol-2-yl)-7-oxo-4-thia-1-azabicyclo[3.2.0]heptane-3-carboxylic acid]
MIC [1]: 0.5 µg/mL (≈ 0.703 µM)
MIC [2]: 0.5 µg/mL (≈ 0.703 µM)
MIC [3]: 4 µg/mL (≈ 5.63 µM)
MIC [4]: 0.25 µg/mL (≈ 0.352 µM)
MIC [5]: > 32 µg/mL
MIC [6]: 0.25 µg/mL (≈ 0.352 µM)
MIC [7]: 1 µg/mL (≈ 1.41 µM)
MIC ([8]; Pseudomonas aeruginosa): 1 µg/mL (≈ 1.41 µM)
MIC [9]: 1 µg/mL (≈ 1.41 µM)

CC(C)(O/N=C(\C(=O)N[C@@H]1C(=O)N2C[C@@](C(=O)O)(N3CCN(NC(=O)c4c[nH]c5cc(O)c(O)cc5c4=O)C3=O)S[C@H]12)c1csc(N)n1)C(=O)O [Example 154, (3R,5R,6R)-6-((Z)-2-(2-aminothiazol-4-yl)-2-(((2-carboxypropan-2-yl)oxy)imino)acetamido)-3-(3-(6,7-dihydroxy-4-oxo-1,4-dihydroquinoline-3-carboxamido)-2-oxoimidazolidin-1-yl)-7-oxo-4-thia-1-azabicyclo[3.2.0]heptane-3-carboxylic acid]
Antibacterial activity (MIC) Pseudomonas aeruginosa S-3028 [1]: 0.5 µg/mL
Antibacterial activity (MIC) Escherichia coli TK-1747 [2]: 0.5 µg/mL
Antibacterial activity (MIC) Pseudomonas aeruginosa S-3759 [3]: 4 µg/mL
Antibacterial activity (MIC) Pseudomonas aeruginosa S-2838 [4]: 4 µg/mL
Antibacterial activity (MIC) Klebsiella pneumoniae Y-995 [5]: 0.25 µg/mL
Antibacterial activity (MIC) Klebsiella pneumoniae Y-1007 [6]: 0.25 µg/mL
Antibacterial activity (MIC) Klebsiella pneumoniae Y-1062 [7]: 2 µg/mL
Antibacterial activity (MIC) Pseudomonas aeruginosa ATCC 27853 ([8]; Pseudomonas aeruginosa): 2 µg/mL
Antibacterial activity (MIC) Pseudomonas aeruginosa S-3779 [9]: 2 µg/mL

CC(C)(O/N=C(\C(=O)N[C@@H]1C(=O)N2C[C@@](C(=O)O)(N3CCN(/N=C/C=N/NC(=O)NCCNC(=O)c4ccc(O)c(O)c4Cl)C3=O)S[C@H]12)c1csc(N)n1)C(=O)O [Example 53, (3R,5R,6R)-6-((Z)-2-(2-aminothiazol-4-yl)-2-(((2-carboxypropan-2-yl)oxy)imino)acetamido)-3-(3-(((1E,2E)-2-(2-((2-(2-chloro-3,4-dihydroxybenzamido)ethyl)carbamoyl)hydrazono)ethylidene)amino)-2-oxoimidazolidin-1-yl)-7-oxo-4-thia-1-azabicyclo[3.2.0]heptane-3-carboxylic acid]
MIC [1]: 1 µg/mL (≈ 1.17 µM)
MIC [2]: 2 µg/mL (≈ 2.34 µM)
MIC [3]: 2 µg/mL (≈ 2.34 µM)
MIC [4]: 4 µg/mL (≈ 4.69 µM)
MIC [5]: 2 µg/mL (≈ 2.34 µM)
MIC [6]: 0.12 µg/mL (≈ 0.141 µM)
MIC [7]: 0.5 µg/mL (≈ 0.586 µM)
MIC ([8]; Pseudomonas aeruginosa): 0.5 µg/mL (≈ 0.586 µM)
MIC [9]: 0.5 µg/mL (≈ 0.586 µM)
